The experiment concerns the target T1, Recombinant HCV polymerase (Hepatitis C virus genotype 1b, UniProt P26663).
T1 construct: Recombinant HCV polymerase was tested for its ability to perform primer/template-directed transcription
Nature of the experiment: biochemical. The note with it: inhibition of polymerase-directed transcription; 30 min at 30° C; 30 nM enzyme; cpm data in triplicate. Put shortly: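 Primer/template-directed RNA synthesis by 2.5 pmol HCV polymerase on poly(rC)300/biotin-dG12 with 1 μM GTP plus α-32P-GTP, in pH 7.2 Tris buffer with 10 mM MgCl2, for 30 min at 30 °C. Products were filter-captured and counted, with 1% DMSO final. IC50 was fitted from triplicate cpm; percent inhibition was reported where IC50 was impractical.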
T1 sequence (P26663 2420-3010): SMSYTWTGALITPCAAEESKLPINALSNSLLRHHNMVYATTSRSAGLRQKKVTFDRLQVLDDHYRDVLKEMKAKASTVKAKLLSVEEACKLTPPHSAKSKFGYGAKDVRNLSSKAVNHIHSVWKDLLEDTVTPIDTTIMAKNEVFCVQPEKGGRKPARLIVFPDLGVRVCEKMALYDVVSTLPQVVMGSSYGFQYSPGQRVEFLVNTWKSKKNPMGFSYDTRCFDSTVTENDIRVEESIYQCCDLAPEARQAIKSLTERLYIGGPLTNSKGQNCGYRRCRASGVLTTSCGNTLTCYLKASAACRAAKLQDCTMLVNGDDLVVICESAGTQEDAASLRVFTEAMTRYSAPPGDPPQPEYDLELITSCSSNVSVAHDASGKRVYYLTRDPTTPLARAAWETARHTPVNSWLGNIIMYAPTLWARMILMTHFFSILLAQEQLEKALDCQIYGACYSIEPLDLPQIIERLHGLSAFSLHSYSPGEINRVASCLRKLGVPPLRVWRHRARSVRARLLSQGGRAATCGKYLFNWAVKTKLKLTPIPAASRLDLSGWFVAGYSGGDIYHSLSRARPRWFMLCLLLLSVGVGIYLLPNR
As a reminder, the IC50 is the concentration needed to halve the response being measured. For `Cc1cc(C)n2nc(CC3=C(O)CC(CCc4ccnc(C(C)C)c4)(C4CCCC4)OC3=O)nc2n1` (stereo not shown) [A(33), 6Cyclopentyl-3-[(5,7-dimethyl[1,2,4]triazolo[1,5-a]pyrimidin-2-yl)methyl]-4-hydroxy-6-[2-(2-isopropylpyridin-4-yl)ethyl]-5,6-dihydro-2H-pyran-2-one], the IC50 turned out to be 0.007 µM.
In the case of `CCc1cc(CCC2(C3CCCC3)CC(O)=C(Cc3nc4nc(C)cc(C)n4n3)C(=O)O2)ccc1CNC(C)=O` (single isomer, unassigned; enantiomer 1) [A(132), Enantiomer 1 of N-[4-(2-[2-cyclopentyl-5-[(5,7-dimethyl[1,2,4]triazolo[1,5-a]pyrimidin-2-yl)methyl]-4-hydroxy-6-oxo-3,6-dihydro-2H-pyran-2-yl}ethyl)-2-ethylbenzyl]acetamide] it was 0.035 µM; in that of `CCOC(=O)c1cnc2nc(CC3=C(O)CC(CCc4ccc(C(C)(C)C#N)c(Cl)c4)(C4CCCC4)OC3=O)nn2c1` (stereo not shown) [B(13), Ethyl 2-[(6-{2-[3-chloro-4-(1-cyano-1-methylethyl)phenyl]ethyl}-6-cyclopentyl-4-hydroxy-2-oxo-5,6-dihydro-2H-pyran-3-yl)methyl][1,2,4]triazolo[1,5-a]pyrimidine-6-carboxylate], 0.004 µM.
For `CCc1cc(CCC2(C3CCCC3)CC(=O)CC(=O)O2)ccc1OCCNC(=O)OC(C)(C)C` (stereo not shown) [A(68), tert-Butyl 2-{4-[2-(2-cyclopentyl-4,6-dioxotetrahydro-2H-pyran-2-yl)ethyl]-2-ethylphenoxy}ethylcarbamate] the value was 12 µM.

The record behind these values is patent US7151105B2, “Inhibitors of Hepatitis C virus RNA-dependent RNA polymerase, and compositions and treatments using the same” (Agouron Pharmaceuticals, Inc., priority 2004, dated 2006).
